Assays:
[1] = system: CYP2B6; experiment: CYP induction, mRNA by qRT-PCR in cultured human hepatocytes; assay type: in vitro ADME; conditions: up to 30 μM, i.e., < 2-fold change and/or <20% of the positive control
[2] = system: mouse, rat, monkey, and human hepatocyte incubations; experiment: In vitro metabolism in hepatocyte incubations; assay type: in vitro ADME; conditions: HPLC and mass spectrometry
[3] = Phase 1a single ascending dose study in healthy volunteers
[4] = clinical; conditions: both, human, plasma, oral
[5] = system: chronic constriction injury model of neuropathy; experiment: Chronic constriction injury model of neuropathy, von Frey assay; assay type: in vivo, male SD rats; conditions: AUC over 6 h post dose
[6] = system: LPS-induced mouse model; conditions: LPS-induced mouse model ref 38; cited from earlier work
[7] = system: laminitis; conditions: cited from earlier work

Row | effect on CYP2B6 mRNA levels [1] | putative metabolites detected [2] | effective total AUC for a daily dosing regimen ([3]; calculated) | half-life [4] | Compound | absorption ([3]; human, single oral doses) | efficacy compared with pregabalin ([5]; at 10–20 fold lower doses, vs pregabalin (30 mg/kg) p = 0.039) | pain measured with a von Frey assay (mechanical withdrawal thresholds) ([5]; male SD rats, oral gavage, 3 mg/kg, vs PEG 300 p ≤ 0.001) | neuroinflammation in the CNS [6] | outcome in a laminitic horse scheduled for euthanasia ([7]; after 5 days of treatment ref 49) | adverse effects from clinical exams and blood work ([7]; horse, five-day treatment, once daily 0.1 mg/kg ref 49) | outcome in seven other laminitic horses ([7]; when all other treatments failed ref 50)
1 | little or no effect | seven | 6 ng·h/mL | 1.75 to 2.46 days | CC[C@H](C)C(=O)N1CCC(NC(=O)Nc2ccc(OC(F)(F)F)c(F)c2)CC1 [EC5026, (S)-1-(3-Fluoro-4-(trifluoromethoxy)phenyl)-3-(1-(2-methylbutanoyl)piperidin-4-yl)urea] | well absorbed with linear dose-proportionality | superior to pregabalin | blocked pain | prevent neuroinflammation | – | – | –
2 | – | – | – | – | O=C(Nc1ccc(OC(F)(F)F)cc1)N[C@H]1CC[C@H](Oc2ccc(C(=O)O)cc2)CC1 [t-TUCB, trans-4-{4-[3-(4-trifluoromethoxy-phenyl)-ureido]-cyclohexyloxy}-benzoic acid] | – | – | – | – | complete recovery with no recurrent laminitis | no signs of adverse effects | showed improvement in disease

From paper PMC7917437 (Journal of Medicinal Chemistry, 2021)
